Source: patent US12286442B2, “Methods and materials for increasing transcription factor eb polypeptide levels” (University of Pittsburgh—Of the Commonwealth System of …, priority 2019, dated 2025)

Tested on: TFEB
Test: High content screen measuring TFEB nuclear accumulation (TFEB nuclear/cytosol ratio) in BEAS-2B cells stably expressing TFEB-EGFP
Format: cell-based, human
Conditions: 18 hours incubation
In short: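 Readout: lowest compound concentration giving a 25% rise in nuclear/cytosol TFEB-GFP ratio, from DAPI-masked nuclear and mask-expanded cytosolic signals. Cells (BEAS-2B, TFEB-EGFP stable, ~2300–2500/well) rested 8 hours, then treated 18 hours with compound serial dilutions in 2% FBS medium before PFA fixation and DAPI staining.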

Row | SMILES | efficacy (minimal compound concentration needed to increase TFEB nuclear/cytosol ratio by 25%)
1 | CC(C)(C)c1cc2cc(Nc3nc(-c4ccncc4)cc4ncccc34)ccc2[nH]1 [Compound 243] | +++ (“+++” equals ≤1 μM)
2 | Cn1ncc2ccc(Nc3nc(-c4ccncc4)nc4ccccc34)cc21 [Compound 23] | +++ (“+++” equals ≤1 μM)
3 | OC1CCN(c2nc(-c3ccncc3)nc3ccccc23)CC1 [Compound 177] | + (“+” equals >25 μM)
4 | c1cnc2nc(-c3ccncc3)nc(Nc3ccc4ncsc4c3)c2c1 [Compound 132] | +++ (“+++” equals ≤1 μM)
5 | Cc1cc(F)cc(Nc2nc(N3CCOCC3)nc3ccccc23)c1 [Compound 46] | + (“+” equals >25 μM)
6 | COc1ccc2c(Nc3ccc4[nH]ccc4c3)nc(-c3ccncc3)nc2c1 [Compound 114] | +++ (“+++” equals ≤1 μM)
7 | c1ccc2c(Nc3ccc4[nH]ccc4c3)nc(-c3cc[nH]c3)nc2c1 [Compound 104] | +++ (“+++” equals ≤1 μM)
8 | c1ccc2c(Nc3cccc4[nH]nnc34)nc(-c3ccncc3)nc2c1 [Compound 101] | + (“+” equals >25 μM)
9 | c1ccc2c(Nc3ccc4[nH]nnc4c3)nc(-c3ccncc3)nc2c1 [Compound 191] | +++ (“+++” equals ≤1 μM)
10 | CC(C)(C)c1cc2cc(Nc3nc(-c4ccncc4)nc4ccncc34)ccc2[nH]1 [Compound 124] | +++ (“+++” equals ≤1 μM)
11 | CCc1ccc(-n2c(=O)c3ccc(C(=O)NCCc4ccccc4)cc3n(Cc3ccccc3C#N)c2=O)cc1 [Compound 231] | ++ (“++” equals between ≤25 μM and >1 μM)
12 | OCCNc1nc(-c2ccncc2)nc2ccccc12 [Compound 168] | + (“+” equals >25 μM)
13 | Cc1cc(Nc2nc(-c3ccncc3)nc3ccccc23)ccc1N [Compound 58] | ++ (“++” equals between ≤25 μM and >1 μM)
14 | c1ccc2c(Nc3ccc4[nH]ncc4c3)cc(-c3ccncc3)nc2c1 [Compound 68] | + (“+” equals >25 μM)
15 | Cc1cccc2c(Nc3cc(F)c4[nH]ccc4c3)nc(-c3ccncc3)nc12 [Compound 156] | +++ (“+++” equals ≤1 μM)
16 | O=C(NCCc1ccccc1)c1ccc2c(=O)n(-c3ccccc3)c(=O)[nH]c2c1 [Compound 238] | + (“+” equals >25 μM)
17 | Cn1ccc2cc(Nc3nc(-c4ccncc4)nc4ccccc34)ccc21 [Compound 26] | +++ (“+++” equals ≤1 μM)
18 | CN(C)CCn1c(=O)n(-c2ccccc2)c(=O)c2ccccc21 [Compound 228] | + (“+” equals >25 μM)
19 | Fc1ccc(Nc2nc(-c3cccnc3)nc3ccccc23)cc1F [Compound 196] | + (“+” equals >25 μM)
20 | Clc1cccc(Nc2nc(-c3ccncc3)nc3ccccc23)c1 [Compound 187] | +++ (“+++” equals ≤1 μM)
21 | Cn1cnc2cc(Nc3nc(-c4ccncc4)nc4ccccc34)ccc21 [Compound 28] | + (“+” equals >25 μM)
22 | CCc1cc(F)cc(Nc2nc(-c3ccncc3)nc3ccccc23)c1 [Compound 21] | + (“+” equals >25 μM)
23 | COc1cc(-n2c(=O)c3ccccc3n(CC(=O)Nc3ccc(C(C)C)cc3)c2=O)cc(OC)c1OC [Compound 214] | + (“+” equals >25 μM)
24 | Fc1cccc(Cc2nc(-c3ccncc3)nc3ccccc23)c1 [Compound 7] | + (“+” equals >25 μM)
25 | Fc1cccc(CNc2nc(-c3ccncc3)nc3ccccc23)c1 [Compound 188] | + (“+” equals >25 μM)
26 | O=C(Cc1ccc(-n2c(=O)c3ccccc3n(Cc3ccccc3F)c2=O)cc1)NC1CC1 [Compound 232] | + (“+” equals >25 μM)
27 | Cc1cccc2c(Nc3ccc4nc(C5CC5)sc4c3)nc(-c3ccncc3)nc12 [Compound 379] | +++ (“+++” equals ≤1 μM)
28 | [O-][n+]1ccc(-c2nc(Nc3ccc4[nH]ccc4c3)c3ccccc3n2)cc1 [Compound 66] | + (“+” equals >25 μM)
29 | Cc1c(Nc2nc(-c3ccncc3)nc3ccncc23)ccc2[nH]ccc12 [Compound 126] | ++ (“++” equals between ≤25 μM and >1 μM)
30 | N#Cc1c[nH]c2ccc(Nc3nc(-c4ccncc4)nc4ccccc34)cc12 [Compound 38] | + (“+” equals >25 μM)

Tested on: BEAS-2B cells
Test: Toxicity: compound concentration needed to induce greater than 50 percent of cell loss
Format: cell-based, human
Conditions: 18 hours incubation
In short: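 Reported value is the concentration giving greater than 50 percent cell loss, grouped into bins (≥25 μM; between 1 and 25 μM; ≤1 μM as "+++"). Measured by high-content imaging of DAPI-stained BEAS-2B TFEB-EGFP cells fixed after 18 h compound exposure.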

Row | SMILES | toxicity (compound concentration needed to induce greater than 50 percent of cell loss)
31 | CC(C)(C)c1cc2cc(Nc3nc(-c4ccncc4)cc4ncccc34)ccc2[nH]1 [Compound 243] | + (cell loss of greater than 50 percent at a concentration that equals or is greater than 25 μM was represented as)
32 | Cn1ncc2ccc(Nc3nc(-c4ccncc4)nc4ccccc34)cc21 [Compound 23] | + (cell loss of greater than 50 percent at a concentration that equals or is greater than 25 μM was represented as)
33 | OC1CCN(c2nc(-c3ccncc3)nc3ccccc23)CC1 [Compound 177] | + (cell loss of greater than 50 percent at a concentration that equals or is greater than 25 μM was represented as)
34 | c1cnc2nc(-c3ccncc3)nc(Nc3ccc4ncsc4c3)c2c1 [Compound 132] | + (cell loss of greater than 50 percent at a concentration that equals or is greater than 25 μM was represented as)
35 | Cc1cc(F)cc(Nc2nc(N3CCOCC3)nc3ccccc23)c1 [Compound 46] | + (cell loss of greater than 50 percent at a concentration that equals or is greater than 25 μM was represented as)
36 | COc1ccc2c(Nc3ccc4[nH]ccc4c3)nc(-c3ccncc3)nc2c1 [Compound 114] | ++ (cell loss of greater than 50 percent at a concentration less than 25 μM and greater than 1 μM was represented as)
37 | c1ccc2c(Nc3ccc4[nH]ccc4c3)nc(-c3cc[nH]c3)nc2c1 [Compound 104] | + (cell loss of greater than 50 percent at a concentration that equals or is greater than 25 μM was represented as)
38 | c1ccc2c(Nc3cccc4[nH]nnc34)nc(-c3ccncc3)nc2c1 [Compound 101] | + (cell loss of greater than 50 percent at a concentration that equals or is greater than 25 μM was represented as)
39 | c1ccc2c(Nc3ccc4[nH]nnc4c3)nc(-c3ccncc3)nc2c1 [Compound 191] | + (cell loss of greater than 50 percent at a concentration that equals or is greater than 25 μM was represented as)
40 | CC(C)(C)c1cc2cc(Nc3nc(-c4ccncc4)nc4ccncc34)ccc2[nH]1 [Compound 124] | + (cell loss of greater than 50 percent at a concentration that equals or is greater than 25 μM was represented as)
41 | CCc1ccc(-n2c(=O)c3ccc(C(=O)NCCc4ccccc4)cc3n(Cc3ccccc3C#N)c2=O)cc1 [Compound 231] | + (cell loss of greater than 50 percent at a concentration that equals or is greater than 25 μM was represented as)
42 | OCCNc1nc(-c2ccncc2)nc2ccccc12 [Compound 168] | + (cell loss of greater than 50 percent at a concentration that equals or is greater than 25 μM was represented as)
43 | Cc1cc(Nc2nc(-c3ccncc3)nc3ccccc23)ccc1N [Compound 58] | + (cell loss of greater than 50 percent at a concentration that equals or is greater than 25 μM was represented as)
44 | c1ccc2c(Nc3ccc4[nH]ncc4c3)cc(-c3ccncc3)nc2c1 [Compound 68] | + (cell loss of greater than 50 percent at a concentration that equals or is greater than 25 μM was represented as)
45 | Cc1cccc2c(Nc3cc(F)c4[nH]ccc4c3)nc(-c3ccncc3)nc12 [Compound 156] | + (cell loss of greater than 50 percent at a concentration that equals or is greater than 25 μM was represented as)
46 | O=C(NCCc1ccccc1)c1ccc2c(=O)n(-c3ccccc3)c(=O)[nH]c2c1 [Compound 238] | + (cell loss of greater than 50 percent at a concentration that equals or is greater than 25 μM was represented as)
47 | Cn1ccc2cc(Nc3nc(-c4ccncc4)nc4ccccc34)ccc21 [Compound 26] | +++ (cell loss of greater than 50 percent at a concentration that equals or is less than 1 μM was represented as “+++.”)
48 | CN(C)CCn1c(=O)n(-c2ccccc2)c(=O)c2ccccc21 [Compound 228] | + (cell loss of greater than 50 percent at a concentration that equals or is greater than 25 μM was represented as)
49 | Fc1ccc(Nc2nc(-c3cccnc3)nc3ccccc23)cc1F [Compound 196] | + (cell loss of greater than 50 percent at a concentration that equals or is greater than 25 μM was represented as)
50 | Clc1cccc(Nc2nc(-c3ccncc3)nc3ccccc23)c1 [Compound 187] | + (cell loss of greater than 50 percent at a concentration that equals or is greater than 25 μM was represented as)
51 | Cn1cnc2cc(Nc3nc(-c4ccncc4)nc4ccccc34)ccc21 [Compound 28] | + (cell loss of greater than 50 percent at a concentration that equals or is greater than 25 μM was represented as)
52 | CCc1cc(F)cc(Nc2nc(-c3ccncc3)nc3ccccc23)c1 [Compound 21] | + (cell loss of greater than 50 percent at a concentration that equals or is greater than 25 μM was represented as)
53 | COc1cc(-n2c(=O)c3ccccc3n(CC(=O)Nc3ccc(C(C)C)cc3)c2=O)cc(OC)c1OC [Compound 214] | + (cell loss of greater than 50 percent at a concentration that equals or is greater than 25 μM was represented as)
54 | Fc1cccc(Cc2nc(-c3ccncc3)nc3ccccc23)c1 [Compound 7] | + (cell loss of greater than 50 percent at a concentration that equals or is greater than 25 μM was represented as)
55 | Fc1cccc(CNc2nc(-c3ccncc3)nc3ccccc23)c1 [Compound 188] | + (cell loss of greater than 50 percent at a concentration that equals or is greater than 25 μM was represented as)
56 | O=C(Cc1ccc(-n2c(=O)c3ccccc3n(Cc3ccccc3F)c2=O)cc1)NC1CC1 [Compound 232] | + (cell loss of greater than 50 percent at a concentration that equals or is greater than 25 μM was represented as)
57 | Cc1cccc2c(Nc3ccc4nc(C5CC5)sc4c3)nc(-c3ccncc3)nc12 [Compound 379] | + (cell loss of greater than 50 percent at a concentration that equals or is greater than 25 μM was represented as)
58 | [O-][n+]1ccc(-c2nc(Nc3ccc4[nH]ccc4c3)c3ccccc3n2)cc1 [Compound 66] | + (cell loss of greater than 50 percent at a concentration that equals or is greater than 25 μM was represented as)
59 | Cc1c(Nc2nc(-c3ccncc3)nc3ccncc23)ccc2[nH]ccc12 [Compound 126] | + (cell loss of greater than 50 percent at a concentration that equals or is greater than 25 μM was represented as)
60 | N#Cc1c[nH]c2ccc(Nc3nc(-c4ccncc4)nc4ccccc34)cc12 [Compound 38] | + (cell loss of greater than 50 percent at a concentration that equals or is greater than 25 μM was represented as)
